Assays:
[1] = system: NCI-H460 (human lung carcinoma cell line); test: MTT cell viability, human lung carcinoma cells; type: cell-based; details: 24 h incubation, mean ± SD (n = 3), test concentration not given
Method: (§1) To evaluate the potential antitumoral activity of the compounds, the MTT [3-(4,5-dimethyl-2-thiazolyl)-2,5-diphenyl-2H-tetrazolium bromide] method was used to determine the cell viability of SK-MEL-28 (human melanoma cell line), NCI-H460 (human lung carcinoma cell line), SF295 (human glioblastoma cell line), and HUVEC (human umbilical vein endothelial cells) line. Cell viability analysis of murine macrophage J774A.1 was conducted using a resazurin-based cytotoxicity assay (Alamar blue®). All cell lines were acquired from the BCRJ (Rio de Janeiro Cell Bank, Federal University of Rio de Janeiro, Brazil). The cell lines were cultivated in RPMI-1640 or DMEM medium, supplemented with 1.5 g/L of sodium bicarbonate, 10 mM of HEPES, pH 7.4, 100 U/mL of penicillin G, 100 μg/mL of streptomycin, and 10% fetal calf serum at 37 °C in a humidified atmosphere consisting of 95% air and 5% CO2 cultures, and greater than 95% of viable cells in trypan blue exclusion tests were used for the experiments. Therefore, cells were seeded (1 × 10^4/well) in 96-well plates and incubated with increasing concentrations of the compounds for 24 h. After incubation, the former culture medium was replaced with a fresh culture medium with 5 mg/mL of MTT and with 0.1 mg/mL of resazurin for 2 h at 37 °C. MTT formazan crystals were dissolved in DMSO, and the absorbance of each well was measured at 540 nm, using a micro-well system reader. For the control group of each cell line, cells were incubated without the compounds and considered to have 100% cell viability. MTT formazan crystals were dissolved in DMSO, and absorbance was measured at 540 nm using a microplate reader (ELX800, Biotek, Winooski, VT, USA). The half-maximal cytotoxic concentration (CC50) values were calculated from a Hill concentration–response curve. Results were expressed as the mean ± SD of three experiments. The selectivity index (SI) was calculated via the ratio between the CC50 of non-tumoral cells and the tumoral cell lines. […] For the resazurin assay, fluorescence was measured at 1 h intervals using a plate multi-reader (Infinite Multireader m200 Tecan) at 530–590 nm. Nonlinear regression of each fraction versus percentage cell viability was performed to obtain a 10% toxicity concentration (a concentration causing 90% cell viability) using GraphPad Prism 8.0 software (GraphPad Software, San Diego, CA, USA).

[2] = system: SF295 (human glioblastoma cell line); test: MTT cell viability, human glioblastoma cells; type: cell-based; details: 24 h incubation, mean ± SD (n = 3), test concentration not given
Method: as §1

[3] = system: SK-MEL-28 (human melanoma cell line); test: MTT cell viability / cytotoxicity, human melanoma cells; type: cell-based; details: for Viability (%) SK-MEL-28 / CC50: MTT; for Viability (%) SK-MEL-28: 24 h incubation, mean ± SD (n = 3), test concentration not given; for CC50: 24 h, half-maximal cytotoxic concentration; for SI (selectivity index) SK-MEL-28: ratio of CC50 of non-tumoral HUVEC cells to CC50 of SK-MEL-28
Method: as §1

[4] = system: LPS-stimulated M1 macrophages J774A.1 (IL-6); test: Interleukin-6 release from LPS-stimulated macrophages (ELISA); type: cell-based, murine; details: for Anti-inflammatory activity, IL-6 release (in words): compound at CC10, LPS 10 μg/mL; for Reduction of IL-6 release vs control M1 cells (LPS+ group): compound at CC10, pre-treatment 15 min, LPS 10 μg/mL, 24 h
Method: (§2) The in vitro anti-inflammatory activity was performed in murine macrophage J774A.1 and analyzed after modifications to the protocol previously described by […] and coworkers. The evaluation consisted of measuring the production of nitrite through an indicator of NO synthesis in supernatants from LPS-activated macrophages. A number of 1 × 10^5 cells/well were seeded in 96-well plates for 24 h, after which time the culture medium was changed, and the CC10 concentration (Figure S70, found in the Supplementary Materials) of each compound was added to the medium containing DMEM supplemented with 10% FBS. After 15 min, macrophages were stimulated with 10 μg/mL of LPS and incubated for 24 h to obtain a proinflammatory M1-phenotype. Subsequently, supernatants were collected and total nitrite nitrate (NOx) was measured by adding 100 μL of Griess' reagent (1% sulfanilamide and 0.1% N-(1-naphthyl) ethylenediamine in 0.5% phosphoric acid). Absorbance was determined with a microplate reader (ELX800, BioTek, Winooski, VT, USA) at 540 nm. In addition, the proinflammatory cytokine IL-6 was determined using an enzyme-linked immunosorbent assay (ELISA) (BD Bioscience, San Jose, CA, USA) according to the manufacturer's instructions.

[5] = system: LPS-stimulated M1 macrophages J774A.1 (NOx); test: Total nitrite nitrate (NOx) release from LPS-stimulated macrophages (Griess); type: cell-based, murine; details: for Anti-inflammatory activity, NOx release (in words): compound at CC10, LPS 10 μg/mL; for Reduction of NOx release vs control M1 cells (LPS+ group): compound at CC10, pre-treatment 15 min, LPS 10 μg/mL, 24 h
Method: as §2

[6] = system: murine macrophage J774A.1; test: Resazurin-based cytotoxicity assay (Alamar blue) in macrophages; type: cell-based; details: J774A.1, Figure S70
Method: To evaluate the potential antitumoral activity of the compounds, the MTT [3-(4,5-dimethyl-2-thiazolyl)-2,5-diphenyl-2H-tetrazolium bromide] method was used to determine the cell viability of SK-MEL-28 (human melanoma cell line), NCI-H460 (human lung carcinoma cell line), SF295 (human glioblastoma cell line), and HUVEC (human umbilical vein endothelial cells) line. Cell viability analysis of murine macrophage J774A.1 was conducted using a resazurin-based cytotoxicity assay (Alamar blue®). All cell lines were acquired from the BCRJ (Rio de Janeiro Cell Bank, Federal University of Rio de Janeiro, Brazil). […] MTT formazan crystals were dissolved in DMSO, and the absorbance of each well was measured at 540 nm, using a micro-well system reader. […] MTT formazan crystals were dissolved in DMSO, and absorbance was measured at 540 nm using a microplate reader (ELX800, Biotek, Winooski, VT, USA). The half-maximal cytotoxic concentration (CC50) values were calculated from a Hill concentration–response curve. Results were expressed as the mean ± SD of three experiments. The selectivity index (SI) was calculated via the ratio between the CC50 of non-tumoral cells and the tumoral cell lines. […] For the resazurin assay, fluorescence was measured at 1 h intervals using a plate multi-reader (Infinite Multireader m200 Tecan) at 530–590 nm. […]

[7] = MTT cytotoxicity, non-tumoral endothelial cells; type: cell-based, human; details: human, HUVEC cells (non-tumoral), pH 7.4
Method: as §1

[8] = system: HUVEC (human umbilical vein endothelial cells); test: MTT cytotoxicity, non-tumoral endothelial cells; type: cell-based; details: 24 h
Method: as §1

Molecule | Viability (%) NCI-H460 [1] [%] | Viability (%) SF295 [2] [%] | Viability (%) SK-MEL-28 [3] [%] | further results
CC(=O)OCC1=C2C(OC(C)=O)CC(C)(OC(C)=O)C(=O)CCC3(C)OC3C2OC1=O (stereo not drawn) [Compound 1, glaucolide B] | 85.1 ± 4.6 | 88.0 ± 4.8 | 82.6 ± 4.1 | 
COCC1=C2C(OC(C)=O)CC(C)(OC(C)=O)C3(O)CCC(C)(O)C(OC(C)=O)C23OC1=O (stereo not drawn) [Compound 2, 13-O-methylvernojalcanolide-8-O-acetate] | 91.8 ± 3.6 | 86.8 ± 6.3 | 87.1 ± 2.6 | 
CC(=O)OCC1=C2C(OC(C)=O)CC(C)(OC(C)=O)C3(O)CCC(C)(O)C(OC(C)=O)C23OC1=O (stereo not drawn) [Compound 3, 1,4-dihydroxy-5,8,10,13-tetraacetoxycadin-7(11)-en-6,12-olide] | 88.4 ± 3.4 | 86.1 ± 2.3 | 91.1 ± 1.7 | 
C=C1C(=O)OC2C(OC(C)=O)C3(C)CC4C12C(OC(C)=O)CC(C)(OC(C)=O)C4(O)O3 (stereo not drawn) [Compound 4, 5,8-diacetoxy-2-epi-vernomargolide-1,4-cyclosemiacetal] | 100.2 ± 2.7 | 94.7 ± 1.1 | 96.4 ± 6.9 | 
C=C1C(=O)OC2C(OC(C)=O)C3(C)CC4C12C(OC(C)=O)CC(C)(O)C4(O)O3 (stereo not drawn) [Compound 5, 5,8,10-triacetoxy-2-epi-vernomargolide-1,4-cyclosemiacetal] | 100.3 ± 5.5 | 95.6 ± 3.9 | 95.3 ± 4.1 | 
C=C1C(=O)OC2C(OC(C)=O)C3(C)CC4C12C(OC(C)=O)CC1(C)OC(C)(C)OC41O3 (stereo not drawn) [Compound 6, 5,8-diacetoxy-2-epi-vernomargolide-1,4-cycloacetal-1,10-acetonide] | 90.4 ± 1.5 | 90.4 ± 3.7 | 85.9 ± 4.0 | 
CC(=O)OCC1=C2C(OC(C)=O)CC(C)(OC(C)=O)C3(O)CCC(C)(O3)C(O)C2OC1=O (stereo not drawn) [Compound 7, 5-hydroxy-hirsutinolide] | 89.1 ± 3.9 | 86.7 ± 3.8 | 76.2 ± 7.5 | 
CC(=O)OCC1=C2C(OC(C)=O)CC(C)(OC(C)=O)C3(O)CCC(C)(O3)C(OC(C)=O)C2OC1=O (stereo not drawn) [Compound 7a, 5-acetoxy-hirsutinolide] | 74.6 ± 1.3 | 86.9 ± 4.3 | 17.1 ± 3.3 | Anti-inflammatory activity, IL-6 release (in words) [4]: strongly reduced; Reduction of IL-6 release vs control M1 cells (LPS+ group) [4]: ~77%; Anti-inflammatory activity, NOx release (in words) [5]: strongly reduced; Reduction of NOx release vs control M1 cells (LPS+ group) [5]: ~77%; Cytotoxicity against macrophages (in words) [6]: less cytotoxicity against macrophages; CC50 at 24 h [7]: 12.7 µM; CC50 ([3]; Homo sapiens, SK-MEL-28): 5 µM; SI (selectivity index) SK-MEL-28 [3]: 2.5
CC(=O)OCC1=C2/C(=C\C3(C)CC=C(O3)C(C)(OC(C)=O)CC2OC(C)=O)OC1=O (stereo not drawn) [Compound 7b, 8,10,13-triacetoxy-1(4)-epoxy-germacra-1(2),5(6),7(11)-trien-6(12)-olide] | 73.2 ± 1.0 | 83.3 ± 1.2 | 16.0 ± 2.6 | CC50 at 24 h [7]: 27.8 µM; CC50 ([3]; Homo sapiens, SK-MEL-28): 11.2 µM; SI (selectivity index) SK-MEL-28 [3]: 2.5
C=C1C(=O)OC2(O)C(=O)C3(C)CCC(=O)C(C)(OC(C)=O)CC(OC(C)=O)C12O3 (stereo not drawn) [Compound 7c.1, 8,10-diacetoxy-4(7)-epoxy-6-hydroxy-1,5-oxo-germacr-11(13)-en-6(12)-olide] | 88.7 ± 6.7 | 87.0 ± 4.7 | 77.3 ± 0.3 | Anti-inflammatory activity, IL-6 release (in words) [4]: strongly reduced; Reduction of IL-6 release vs control M1 cells (LPS+ group) [4]: ~77%; Anti-inflammatory activity, NOx release (in words) [5]: strongly reduced; Reduction of NOx release vs control M1 cells (LPS+ group) [5]: ~77%; Cytotoxicity against macrophages (in words) [6]: less cytotoxicity against macrophages
CC(=O)OCC1=C2C(OC(C)=O)CC(C)(OC(C)=O)C3(O)CCC(C)(O3)C(=O)C2(O)OC1=O (stereo not drawn) [Compound 7c] | 85.7 ± 1.6 | 88.6 ± 4.8 | 79.2 ± 6.4 | 
C=C1C(=O)OC2C(O)C3(C)CCC(OC(C)=O)(O3)C3(C)CC(OC(C)=O)C12O3 (stereo not drawn) [Compound 8, 1,8-diacetoxy-1(4),7(10)-diepoxy-5-hydroxygermacr-11(13)-en-6(12)-olide] | 87.3 ± 1.6 | 82.0 ± 4.7 | 66.9 ± 3.5 | 
C=C1C(=O)OC2C(OC(C)=O)C3(C)CCC(OC(C)=O)(O3)C3(C)CC(OC(C)=O)C12O3 (stereo not drawn) [Compound 8a, 1,5,8-triacetoxy-1(4),7(10)-diepoxy-germacr-11(13)-en-6(12)-o1ide] | 53.1 ± 0.0 | 67.3 ± 4.0 | 5.3 ± 0.3 | CC50 at 24 h [7]: 9 µM; CC50 ([3]; Homo sapiens, SK-MEL-28): 3.1 µM; SI (selectivity index) SK-MEL-28 [3]: 3.0
C=C1C(=O)OC2C(O)C(C)(O)CC3C(=O)C(C)(O)CC(OC(C)=O)C132 (stereo not drawn) [Compound 9, 8-acetoxy-vernomargolide] | 84.9 ± 0.4 | 85.2 ± 2.8 | 74.5 ± 4.9 | 
C=C1C(=O)OC2C(OC(C)=O)C(C)(O)CC3C(=O)C(C)(O)CC(OC(C)=O)C132 (stereo not drawn) [Compound 9a, 5,8-diacetoxy-vernomargolide] | 84.8 ± 0.9 | 85.9 ± 5.0 | 73.8 ± 3.1 | 
C=C(C)C(=O)OC1CC(C)(O)C2(O)CCC(C)(/C=C3/OC(=O)C(COC(C)=O)=C31)O2 (stereo not drawn) [Compound 10, piptocarphin A, reference compound] | 104.8 ± 1.6 | 93.2 ± 3.2 | 23.1 ± 4.2 | CC50 at 24 h [7]: 12.5 µM; CC50 ([3]; Homo sapiens, SK-MEL-28): 6.7 µM; SI (selectivity index) SK-MEL-28 [3]: 1.9
CC(=O)OCC1=C2/C(=C\C3(C)CCC(O)(O3)C(C)(O)CC2OC(C)=O)OC1=O (stereo not drawn) [Compound 12, diacetylpiptocarphol, reference compound] | 63.8 ± 6.9 | 80.4 ± 3.3 | 9.0 ± 0.5 | CC50 at 24 h [7]: 12.6 µM; CC50 ([3]; Homo sapiens, SK-MEL-28): 3.8 µM; SI (selectivity index) SK-MEL-28 [3]: 3.3
glaucolide A [Compound 11, reference compound] | 95.1 ± 4.6 | 91.8 ± 3.3 | 56.3 ± 1.4 | CC50 [8]: 20.4 µM; CC50 [3]: 14.6 µM

From article PMC9921329, “Semisynthetic Sesquiterpene Lactones Generated by the Sensibility of Glaucolide B to Lewis and Brønsted–Lowry Acids and Bases: Cytotoxicity and Anti-Inflammatory Activities” (Molecules, 2023)
